{"source": "ChEMBL document CHEMBL1153316", "about": "“Selectivity profiling of DegP substrates and inhibitors” (Bioorg Med Chem, 2009)", "key": {"[1]": {"assay": "Inhibition of subtilisin assessed as specific activity at 0.5 mM", "design": "scale not given: the % may be the effect or the level left"}, "[2]": {"assay": "Inhibition of chymotrypsin assessed as specific activity at 0.5 mM", "design": "scale not given: the % may be the effect or the level left"}, "Escherichia coli [3]": {"tested_on": "Escherichia coli", "assay": "Activity at Escherichia coli degP"}, "[4]": {"assay": "Inhibition of kallikrein assessed as specific activity at 0.5 mM", "design": "scale not given: the % may be the effect or the level left"}, "[5]": {"assay": "Inhibition of trypsin assessed as specific activity at 0.5 mM", "design": "scale not given: the % may be the effect or the level left"}, "[6]": {"target": "Plasminogen (Homo sapiens) (UniProt P00747)", "sequence (P00747 97-580 limits assumed)": "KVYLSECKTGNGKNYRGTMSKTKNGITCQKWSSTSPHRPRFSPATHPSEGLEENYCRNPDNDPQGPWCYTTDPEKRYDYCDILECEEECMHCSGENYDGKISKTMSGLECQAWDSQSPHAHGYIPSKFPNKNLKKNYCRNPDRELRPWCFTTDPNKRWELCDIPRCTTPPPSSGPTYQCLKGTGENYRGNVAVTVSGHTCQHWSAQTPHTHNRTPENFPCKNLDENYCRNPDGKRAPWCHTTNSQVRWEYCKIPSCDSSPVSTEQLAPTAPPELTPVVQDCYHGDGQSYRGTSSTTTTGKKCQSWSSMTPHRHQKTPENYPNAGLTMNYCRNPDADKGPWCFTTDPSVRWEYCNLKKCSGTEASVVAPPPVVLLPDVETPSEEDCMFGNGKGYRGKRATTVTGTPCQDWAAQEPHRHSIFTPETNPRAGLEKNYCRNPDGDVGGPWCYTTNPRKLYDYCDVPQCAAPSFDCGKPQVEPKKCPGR", "sequence (P00747 581-810 limits assumed)": "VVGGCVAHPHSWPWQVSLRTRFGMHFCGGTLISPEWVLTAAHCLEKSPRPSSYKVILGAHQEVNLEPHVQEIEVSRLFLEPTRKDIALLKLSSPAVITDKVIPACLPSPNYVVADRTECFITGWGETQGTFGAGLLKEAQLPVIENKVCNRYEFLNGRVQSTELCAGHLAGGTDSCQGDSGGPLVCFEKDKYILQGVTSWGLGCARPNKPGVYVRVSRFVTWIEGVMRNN", "assay": "Inhibition of plasmin assessed as specific activity at 0.5 mM", "design": "scale not given: the % may be the effect or the level left"}, "[7]": {"assay": "Inhibition of elastase assessed as specific activity at 0.5 mM", "design": "scale not given: the % may be the effect or the level left"}, "Escherichia coli [8]": {"tested_on": "Escherichia coli", "assay": "Inhibition of Escherichia coli degP assessed as specific activity at 0.5 mM", "design": "scale not given: the % may be the effect or the level left"}, "[9]": {"target": "Prothrombin (Homo sapiens) (UniProt P00734)", "assay": "Inhibition of thrombin assessed as specific activity at 0.5 mM", "design": "scale not given: the % may be the effect or the level left"}, "[10]": {"assay": "Inhibition of kallikrein assessed as residual proteolytic activity at 0.5 mM"}, "[11]": {"target": "Prothrombin (Homo sapiens) (UniProt P00734)", "assay": "Inhibition of thrombin assessed as residual proteolytic activity at 0.5 mM"}, "[12]": {"assay": "Inhibition of chymotrypsin assessed as residual proteolytic activity at 0.5 mM"}, "[13]": {"assay": "Inhibition of trypsin assessed as residual proteolytic activity at 0.5 mM"}, "[14]": {"assay": "Inhibition of elastase assessed as residual proteolytic activity at 0.5 mM"}, "[15]": {"assay": "Inhibition of subtilisin assessed as residual proteolytic activity at 0.5 mM"}, "[16]": {"assay": "Inhibition of subtilisin"}, "[17]": {"assay": "Inhibition of Escherichia coli degP"}, "[18]": {"target": "Plasminogen (Homo sapiens) (UniProt P00747)", "assay": "Inhibition of plasmin assessed as residual proteolytic activity at 0.5 mM"}, "Escherichia coli [19]": {"tested_on": "Escherichia coli", "assay": "Inhibition of Escherichia coli degP assessed as residual proteolytic activity at 0.5 mM"}, "[20]": {"assay": "Inhibition of elastase"}}, "note": "pIC50: −log10 of the molar value. Peptide text beside a SMILES is read from it.", "data": [{"smiles": "CSCC[C@H](NC(=O)[C@@H]1CCCN1C(=O)[C@@H](N)CC(=O)O)C(=O)N[C@@H](Cc1ccccc1)C(=O)N[C@@H](CCCCN)C(=O)N[C@@H](CC(C)C)C(=O)N[C@H](C(=O)Nc1ccc([N+](=O)[O-])cc1)C(C)C", "note": "(HELM PEPTIDE1{D.P.M.F.K.L.V.[O=[N+]([O-])c1ccc(N[*:1])cc1]}$$$$V2.0)", "values": [{"measurement": "Activity", "setting": "[1]", "value": 1, "unit": "%"}, {"measurement": "Activity", "setting": "[2]", "value": "< 1", "unit": "%"}, {"measurement": "Km", "setting": "Escherichia coli [3]", "value": 600, "unit": "µM"}, {"measurement": "Vmax", "setting": "Escherichia coli [3]", "value": 1.2, "unit": "µmol/min"}, {"measurement": "Activity", "setting": "[4]", "value": "< 1", "unit": "%"}, {"measurement": "Activity", "setting": "[5]", "value": "< 1", "unit": "%"}, {"measurement": "Activity", "setting": "[6]", "value": "< 1", "unit": "%"}, {"measurement": "Activity", "setting": "[7]", "value": 4, "unit": "%"}, {"measurement": "Activity", "setting": "Escherichia coli [8]", "value": 473, "unit": "%"}, {"measurement": "Activity", "setting": "[9]", "value": "< 1", "unit": "%"}]}, {"smiles": "CSCC[C@H](NC(=O)[C@@H]1CCCN1C(=O)[C@@H](N)CO)C(=O)N[C@@H](Cc1ccccc1)C(=O)N[C@@H](CCCCN)C(=O)NCC(=O)N[C@H](C(=O)CCl)C(C)C", "note": "(HELM PEPTIDE1{S.P.M.F.K.G.V.[ClC[*:1]]}$$$$V2.0)", "values": [{"measurement": "Activity", "setting": "[10]", "value": 101, "unit": "%"}, {"measurement": "Activity", "setting": "[11]", "value": 96, "unit": "%"}, {"measurement": "Activity", "setting": "[12]", "value": 92, "unit": "%"}, {"measurement": "Activity", "setting": "[13]", "value": 354, "unit": "%"}, {"measurement": "Activity", "setting": "[14]", "value": "< 1", "unit": "%"}, {"measurement": "Activity", "setting": "[15]", "value": "< 1", "unit": "%"}, {"measurement": "pIC50", "setting": "[16]", "value": 9.00}, {"measurement": "pIC50", "setting": "[17]", "value": 4.12}, {"measurement": "Activity", "setting": "[18]", "value": 81, "unit": "%"}, {"measurement": "Activity", "setting": "Escherichia coli [19]", "value": 3, "unit": "%"}, {"measurement": "pIC50", "setting": "[20]", "value": 3.66}]}, {"smiles": "CSCC[C@H](NC(=O)[C@H](CCSC)NC(=O)[C@@H]1CCCN1C(=O)[C@H](CC(C)C)NC(=O)[C@@H](NC(=O)[C@H](CC(N)=O)NC(=O)[C@H](Cc1ccccc1)NC(=O)[C@@H](N)C(C)C)[C@@H](C)O)C(=O)NCC(=O)N[C@@H](CCCCN)C(=O)N[C@@H](C)C(=O)N[C@@H](CO)C(=O)N1CCC[C@H]1C(=O)N[C@H](C(=O)CCl)C(C)C", "note": "(HELM PEPTIDE1{V.F.N.T.L.P.M.M.G.K.A.S.P.V.[ClC[*:1]]}$$$$V2.0)", "values": [{"measurement": "Activity", "setting": "[10]", "value": 88, "unit": "%"}, {"measurement": "Activity", "setting": "[11]", "value": 102, "unit": "%"}, {"measurement": "Activity", "setting": "[12]", "value": 22, "unit": "%"}, {"measurement": "Activity", "setting": "[13]", "value": 287, "unit": "%"}, {"measurement": "Activity", "setting": "[14]", "value": "< 1", "unit": "%"}, {"measurement": "Activity", "setting": "[15]", "value": 155, "unit": "%"}, {"measurement": "Activity", "setting": "[18]", "value": 75, "unit": "%"}, {"measurement": "Activity", "setting": "Escherichia coli [19]", "value": 57, "unit": "%"}]}]}
